Experimental data from patent US11946027B2, “Systems and methods for monitoring behavior of cells and/or tissues in culturing media” (Purdue Research Foundation, priority 2019, dated 2024).

Columns and labels:
[1] = system: MCF7 cells; assay: Impedimetric cytotoxicity of MCF7 cells on the scaffold system with Dox; type: cell-based; settings: 30 kHz
Protocol: The scaffold system remained afloat on the medium, wherein the recording electrodes were entirely surrounded with polyimide elastomers. The flexible conductors were ACF cables (HST-9805-210, Elform, Inc., USA) placed on the sponge-like PDMS buoyant member and wired to an external data acquisition system (E4980AL Precision LCR meter, Keysight Technologies, USA) through the air. […] From about 16 hours later, drastic increase of the impedance occurred due to the cell aggregation and continuous proliferation. This tendency was more obvious in the MCF7 cells because the population doubling time of MCF7 cells (about 29 hours) is shorter than that of SKOV3 cells (about 48 hours) and HUVEC cells (about 60 hours). Consistently, the impedance of the MCF7 cells increased proportionally to the cellular density (FIG. 3C).
(§1) The impedance was measured by using an LCR meter (Agilent 4294A, USA) with the voltage (between two adjacent recording electrodes) of about 1 mV for 48 hours at the frequencies of 1, 5, 10, 20, 30, 50, 100, 150, 200 and 250 kHz. The scaffold system was placed in the incubator (5% CO^2, 37° C.; Thermo Scientific, USA) and wired to the LCR meter located outside of the incubator via flexible ACF cables. The data was collected every 2 hours from the scaffold system.

[2] = system: MCF7 cells; assay: Real-time impedance monitoring in three-layer stacked scaffold seeded with MCF7 cells, Dox introduced on the top; type: cell-based; settings: 1 mM Dox introduced on the top at 1-day incubation
Protocol: In this configuration, each layer of the scaffold system remains spaced apart a fixed distance of about 5 mm along the perimeter by using spacers made of PDMS.
as §1

[3] = hydrophilic and water-soluble; Doxorubicin Hydrochloride, Fisher; cited from earlier work
[4] = system: cardiomyocytes; assay: ECG recording of cardiomyocytes on the scaffold in response to norepinephrine; type: cell-based, neonatal mice; settings: cardiomyocytes at day 8
Text: The beating rate decreased from 288 bpm to 60 bpm and to 36 bpm, whereas the amplitude increased from 66 μV to 83 μV and to 511 μV at day 2, 6, and 8, respectively. The results imply that spontaneous contractions of the individual cells initially occurred, followed by stronger and more synchronized contractions as the cells become more in contact each other. […] A representative microscopy image in FIG. 4C highlights the embedded four-channel-multiplexed sensing electrodes with the cardiomyocytes at day 8 within the domain of 1.4×1.4 mm^2. The results in FIG. 4D indicate the synchronized beating rate (about 0.63 Hz), amplitude (638˜763 μV), and peak width (˜about 0.6 sec). 3D mapping results of the action potentials (FIG. 4E) obtained from the total 48 ECG sensors (4×4 array in each layer) reveal the spontaneous beating activities of the cardiomyocytes at day 2, 6, and 8 without showing any toxic effect.
For cardiomyocyte isolation, primary neonatal mice cardiomyocytes were prepared according to the Pierce Primary Cardiomyocyte Isolation Kit (Thermo Scientific, USA). Briefly, neonatal hearts were isolated from about 1 to 3 days old neonatal mice and placed into separate sterile microcentrifuge tubes containing 500 μL of ice cold Hank's Balanced Salt Solution (HBSS). […]

| Compound | time after drug administration at which impedance started to decrease ([1]; 100 μM Dox introduced at 1-day incubation) [h] | decrease of the impedance ([1]; low drug administration 10 μM) | rate of impedance decrease following drug administration, bottom layer ([2]; bottom scaffold layer) | rate of impedance decrease following drug administration, middle layer ([2]; middle scaffold layer) | solubility [3] | increase of beating rate ([4]; addition of 100 μL of norepinephrine (bitartrate solution 10 μM) into the medium) | time after NE administration to increase of beating rate ([4]; addition of 100 μL of norepinephrine into the medium) [min] |
| --- | --- | --- | --- | --- | --- | --- | --- |
| COc1cccc2c1C(=O)c1c(O)c3c(c(O)c1C2=O)C[C@@](O)(C(=O)CO)C[C@@H]3O[C@H]1C[C@H](N)[C@H](O)[C@H](C)O1 [Dox, doxorubicin] | ≤ 4 | no substantial decrease of the impedance | about 1.6 Ω/hr | about 5.4 Ω/hr | about 50 mg/ml | – | – |
| NC[C@H](O)c1ccc(O)c(O)c1 [norepinephrine] | – | – | – | – | – | nearly two-fold | ≤ 3 |
